From patent publication US20040248984A1, “Use of $g(b)-adrenoceptor agonists for the treatment of neurodegenerative diseases” (priority 2001, published 2004)

Test system: Primary cultures of astrocytes
Experiment: Activation of astrocytes (morphological change in primary astrocyte cultures)
Type: cell-based, Fischer 344 rats
Conditions: 6 hours after start of treatment, serum-free medium, microscope 200× magnification, versus polygonal flat control cells (FIG. 1/7)
Procedure: 1) Activation of Astrocytes
Primary cultures of astrocytes were obtained from the cerebral cortical tissue of newborn Fischer 344 rats within 24 hours after birth. The brains were dissected out of the vault of the cranium under sterile conditions, the cortical tissue (cortex) was isolated, and the cells were dissociated through a narrow-mesh wire netting. The cells were put into cell culture bottles and cultivated in serum-containing DMEM solution (contained fetal calf serum and a penicillin/streptomycin mixture) until the cells were confluent. Oligodendrocytes and microglia were removed by washing with cold buffer solution. The confluent astrocytes were then detached from the base of the culture bottles with a trypsin solution and seeded in a density of 20 000 cells/cm2 in Petri dishes on coverslips and cultivated in serum-containing medium until the cells were again confluent. Two days after confluence, the medium was replaced by serum-free medium and, after 24 hours, the medium was replaced again, likewise by serum-free medium. Twenty-four hours after the second replacement of medium, salmeterol was added. Six hours after the treatment, the astrocytes were photographed under the microscope with 200× magnification to document the morphological changes (FIG. 1/7).

OCc1cc(C(O)CNCCCCCCOCCCCc2ccccc2)ccc1O (stereo not shown) [salmeterol]
morphological changes of astrocytes (activation): activated, stellate and refractile astrocytes
